Several values for one entry are separate records, joined by “and”; a condition that tells them apart may be missing. Identical values can stand only once. Counter-ions that a name gives are not always drawn. Square brackets hold non-standard residues; d marks the D form. Peptide text beside a SMILES is read from it. * marks the point of attachment. X3 = CC(C)[C@@H](C(=O)*)N(C)CCOCCOCCOCCC(=O)NCCCC[C@H](N)C(=O)O; Dolaproine = CO[C@@H]([C@@H]1CCCN1)[C@@H](C)C(=O)O; Dil = CC[C@H](C)[C@H](NC)[C@@H](CC(=O)O)OC; Oxazinan2yl(1,2) = C1CCN(*)OC1; NMeV = CN[C@H](C(=O)O)C(C)C
Tests used:
[1] = tested on: tubulin; experiment: Fluorescence-based microtubule polymerisation assay (DAPI); format: biochemical
Procedure: Tubulin polymerization was investigated using the “Fluorescence-based Microtubule Polymerisation Assay Kit” from Cytoskeleton (Denver, Colo., USA; order number: BK011). With this assay, GTP is added to unpolymerized tubulin, allowing polymerization to take place spontaneously. The assay is based on the binding of the fluorophore 4′,6-diamidino-2-phenylindole (DAPI) to tubulin. Free and bound DAPI can be differentiated on the basis of different emission spectra.
[…] In addition to the buffer control, paclitaxel, with a polymerization-increasing effect, and vinblastin, with a polymerization inhibiting effect, were run additionally as assay controls. Measurement was carried out using 96-well plates with a half base area. The kinetics of the tubulin polymerization were monitored in a Fluorimeter at 37° C. for 1 hour. The excitation wavelength was 355 nm, and emission was monitored at 460 nm. For the region of linear increase within the first 10 minutes, a calculation was made of the change in fluorescence per minute (AF/min), which represents the polymerization rate of the microtubuli. The potency of the test substances was quantified on the basis of their respective reduction of the polymerization rate.

[2] = target: T1, P-glycoprotein (P-gp) (Homo sapiens, UniProt P08183); experiment: P-gp substrate flux assay in L-MDR1 cells; format: in vitro ADME; details: L-MDR1 cells (P-gp overexpressing LLC-PK1); basal to apical; 2 hours
T1 construct: expressed in transfected cells; host or cells: LLC-PK1 (pig kidney) cells transfected with human MDR1 (L-MDR1 cells)
Procedure: The substrate properties of a substance for P-gp (ABCB1) were determined by means of a flux assay using LLC-PK1 cells which overexpress P-gp (L-MDR1 cells) [A. H. Schinkel et al., J. Clin. Invest. 96, 1698-1705 (1995)]. For this purpose, the LLC-PK1 cells or L-MDR1 cells were cultured on 96-well filter plates for 3-4 days. For determination of the permeation, the respective test substance, alone or in the presence of an inhibitor (such as Ivermectin or Verapamil, for example), was applied in a HEPES buffer to the cells either apically (A) or basally (B) and incubated for 2 hours. After 0 hours and after 2 hours, samples were taken from the cis and trans compartments. The samples were separated by HPLC using reverse phase columns. The HPLC system was coupled via a Turbo Ion Spray Interface to a Triple Quadropol mass spectrometer API 3000 (Applied Biosystems Applera, Darmstadt, Germany). The permeability was evaluated on the basis of a Papp value which was calculated using the formula published by Schwab et al. [D. Schwab et al., J. Med. Chem. 46, 1716-1725 (2003)].

[3] = tested on: Caco-2 cells; experiment: Cell permeability flux assay using Caco-2 cells; format: in vitro ADME; details: basal to apical, 2 hours
Procedure: The cell permeability of a substance can be investigated by means of in vitro testing in a flux assay using Caco-2 cells [M. D. Troutman and D R Thakker, Pharm. Res. 20 (8), 1210-1224 (2003)]. For this purpose, the cells were cultured for 15-16 days on 24-well filter plates. For the determination of permeation, the respective working example was applied in a HEPES buffer to the cells either apically (A) or basally (B) and incubated for 2 hours. After 0 hours and after 2 hours, samples were taken from the cis and trans compartments. The samples were separated by HPLC (Agilent 1200, Boblingen, Germany) using reverse phase columns. The HPLC system was coupled via a Turbo Ion Spray Interface to a Triple Quadropol mass spectrometer API 4000 (Applied Biosystems Applera, Darmstadt, Germany). The permeability was evaluated on the basis of a Papp value, which was calculated using the formula published by Schwab et al. [D. Schwab et al., J. Med. Chem. 46, 1716-1725 (2003)].

T1 sequence (P08183 whole entry): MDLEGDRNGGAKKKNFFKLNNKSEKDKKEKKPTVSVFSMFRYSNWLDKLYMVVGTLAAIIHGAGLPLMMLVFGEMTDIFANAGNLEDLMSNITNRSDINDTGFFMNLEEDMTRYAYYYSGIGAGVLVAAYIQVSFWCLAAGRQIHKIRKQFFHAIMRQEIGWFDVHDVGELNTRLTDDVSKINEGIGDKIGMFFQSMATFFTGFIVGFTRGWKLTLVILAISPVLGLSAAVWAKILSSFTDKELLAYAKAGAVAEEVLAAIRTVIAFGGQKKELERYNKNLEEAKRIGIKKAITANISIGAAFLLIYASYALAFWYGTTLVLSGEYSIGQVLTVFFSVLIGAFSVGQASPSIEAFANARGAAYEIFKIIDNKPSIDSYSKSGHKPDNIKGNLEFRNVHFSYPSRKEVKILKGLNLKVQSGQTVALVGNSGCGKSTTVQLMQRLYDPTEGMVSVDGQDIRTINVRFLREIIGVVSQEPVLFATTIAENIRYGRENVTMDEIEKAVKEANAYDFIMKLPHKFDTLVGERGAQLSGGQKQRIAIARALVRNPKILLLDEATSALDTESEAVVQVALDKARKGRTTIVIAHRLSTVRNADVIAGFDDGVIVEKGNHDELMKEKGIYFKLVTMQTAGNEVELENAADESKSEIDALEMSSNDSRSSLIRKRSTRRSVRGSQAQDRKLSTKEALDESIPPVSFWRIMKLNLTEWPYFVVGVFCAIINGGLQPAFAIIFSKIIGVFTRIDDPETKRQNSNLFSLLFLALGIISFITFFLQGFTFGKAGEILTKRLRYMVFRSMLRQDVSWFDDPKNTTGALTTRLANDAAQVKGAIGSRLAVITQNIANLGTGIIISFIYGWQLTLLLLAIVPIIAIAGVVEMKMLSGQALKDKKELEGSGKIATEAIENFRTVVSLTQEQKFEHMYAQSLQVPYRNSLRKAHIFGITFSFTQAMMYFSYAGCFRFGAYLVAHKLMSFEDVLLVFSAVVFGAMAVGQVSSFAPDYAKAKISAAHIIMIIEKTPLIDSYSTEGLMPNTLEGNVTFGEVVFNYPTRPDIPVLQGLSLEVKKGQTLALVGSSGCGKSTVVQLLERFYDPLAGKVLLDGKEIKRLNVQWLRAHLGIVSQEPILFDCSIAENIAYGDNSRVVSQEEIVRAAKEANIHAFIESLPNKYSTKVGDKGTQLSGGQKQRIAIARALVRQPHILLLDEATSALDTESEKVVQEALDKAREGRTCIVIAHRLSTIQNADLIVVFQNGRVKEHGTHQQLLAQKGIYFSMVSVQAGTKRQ

CC[C@H](C)[C@@H]([C@@H](CC(=O)N1CCC[C@H]1[C@H](OC)[C@@H](C)C(=O)N[C@@H](Cc1c[nH]c2ccccc12)C(=O)N1CCCCO1)OC)N(C)C(=O)[C@@H](NC(=O)[C@H](C(C)C)N(C)CCOCCOCCOCCC(=O)NCCCC[C@H](N)C(=O)O)C(C)C [Example 117, N-[(18S)-18-Amino-18-carboxy-12-oxo-3,6,9-trioxa-13-azaoctadec-1-yl]-N-methyl-L-valyl-N-[(3R,4S,5S)-1-{(2S)-2-[(1R,2R)-3-{[(2S)-3-(1H-indol-3-yl)-1-(1,2-oxazinan-2-yl)-1-oxopropan-2-yl]amino}-1-methoxy-2-methyl-3-oxopropyl]pyrrolidin-1-yl}-3-methoxy-5-methyl-1-oxoheptan-4-yl]-N-methyl-L-valinamide trifluoroacetate] (X3-V[Dil][Dolaproine]W-{Oxazinan2yl(1,2)})
Tubulin polymerization in the presence of toxophore in [%]. Tubulin polymerization rate at 1 μM MMAF set at 100% ([1]; toxophore 1 μM, trifluoroacetate): 60% and 78%

CC[C@H](C)[C@@H]([C@@H](CC(=O)N1CCC[C@H]1[C@H](OC)[C@@H](C)C(=O)N[C@@H](Cc1ccccc1)C(=O)O)OC)N(C)C(=O)[C@@H](NC(=O)[C@@H](NC)C(C)C)C(C)C [MMAF, monomethylauristatin F, reference compound] (H-[NMeV]V[Dil][Dolaproine]F-OH)
Effect on tubulin polymerization (in words) [1]: inhibit tubulin polymerization as a function of their concentration

N-[6-(3-{[(2R)-2-Amino-2-carboxyethyl]sulphanyl}-2,5-dioxopyrrolidin-1-yl)hexyl]-N-methyl-L-valyl-N-[(3R,4S,5S)-1-{(2S)-2-[(1R,2R)-3-{R1S)-1-carboxy-2-(1H-indol-3-yl)ethyl]amino}-1-methoxy-2-methyl-3-oxopropyl]pyrrolidin-1-yl}-3-methoxy-5-methyl-1-oxoheptan-4-yl]-N-methyl-L-valinamide [Example 75]
Papp (B-A) [2]: 4 nm/s | Papp (B-A) [3]: 1 nm/s | Tubulin polymerization in the presence of toxophore in [%]. Tubulin polymerization rate at 1 μM MMAF set at 100% ([1]; toxophore 1 μM): 107% | Tubulin polymerization in the presence of toxophore in [%]. Tubulin polymerization rate at 1 μM MMAF set at 100% ([1]; toxophore 10 μM): 25%

Source: patent US8992932B2, “Binder-drug conjugates (ADCs) and use thereof” (Seattle Genetics, Inc., priority 2011, dated 2015)
